The values that follow come from paper PMC5374710, “Discovery of the first dual GSK3β inhibitor/Nrf2 inducer. A new multitarget therapeutic strategy for Alzheimer’s disease” (Scientific Reports, 2017).

The structures appear in SMILES notation.

For assay [1], the system named is NOX. Description: NOX activity assay in LPS-stimulated glial cultures (lucigenin). The assay is classed as cell-based, rat. Particulars: 10 to 60 μM, 4 h stimulation with LPS 1 μg/mL, p < 0.01. The protocol:
TNFα is considered one of the most important pro-inflammatory cytokines. […] The production of TNFα induced by LPS was reduced by 33% at 10 μM and by 50% at 30 μM. […] To further confirm the anti-inflammatory potential of compound 5c we measured the expression of thre NOX2 enzyme, since this isoform has been widely described as being specific tomicroglial cells. As depicted in Fig. 6F, LPS (1 μg/mL) stimulation of primary glial cultures during 24 h increased the expression of NOX2 by 65.3% (p < 0.01) compared to basal conditions.
Figure 6 Nitrites (A), TNFα (B), iNOS (C) and NOX activity (E) blockade (D) and NOX2 production (F) by 5c in primary glial cultures stimulated with LPS (1 μg/mL), HO-1 expression induced by this compound after 24 h. […] NOX activity was measured after 4 h co-treatment with LPS and compound 5c. […]
Cells were pre-incubated with increasing concentrations of the compound. […] Then, treatments were removed and NADPH oxidase activity was assessed by measuring O2^− production in the presence of the substrate, NADPH (100 μM) as lucigenin-enhanced chemiluminiscence (5 μM lucigenin). No enzymatic activity was detected in the absence of NADPH. Luminescence was recorded 29 times every 1.8 seconds for each well in a luminometer, and NADPH oxidase activity was expressed as relative light units (RLU)/min normalized to basal value. […]

The test system of assay [2] is Nrf2. Description: Luciferase activity in AREc32 cells after scramble or GSK3β siRNA. In kind it is cell-based, human. The conditions noted are these: 10 μM, 24 h. As to the method:
To further evaluate the potential relationship between GSK3β inhibition and the Nrf2 induction properties we used two different approaches. […] Cells were treated with compound 5m at increasing concentrations alone or in presence of Li (10 mM) during 24 h and thereafter, luciferase activity was evaluated. […] Secondly, to corroborate the independence of the Nrf2 induction properties of our derivatives from their GSK3β inhibitory properties, we used GSK3β knock down experimental conditions using siRNA. […] After knockdown of GSK3β, AREc32 cells were incubated with compound 5m (10 μM) during 24 h (Fig. 4B). Subsequently, luciferase activity and HO-1 expression were analyzed. […] Similar results were obtained when HO-1 expression was analyzed (Fig. 4D), compound 5m increased HO-1 expression 3.9 times after scramble treatment and 3.5 times after knockdown of GSK3β showing no statistical differences between both conditions. […]
Figure 4 Nrf2 induction properties are independent of the GSK3β inhibitory activity. […] (D) HO-1 expression induced by compound 5m (10 μM) measured at the same experimental conditions used previously. Values are expressed as mean ± SEM of three independent experiments in duplicate. ^###p < 0.001; ^##p < 0.01; ^#p < 0.05 compared to the correspondent basal conditions. […]

For the molecule `COc1cccc(C2C(C#N)=C(N)Oc3n[nH]c(C)c32)c1` (stereo not drawn) [Compound 5c, 6-Amino-4-(3-methoxyphenyl)-3-methyl-2,4-dihydropyrano[2,3-c]pyrazole-5-carbonitrile], the “Reduction of NOX activity” value in assay [1] is given as “significantly reduce”. With `Cc1[nH]nc2c1C(c1ccc(Br)cc1)C(C#N)=C(N)O2` (stereo not drawn) [Compound 5m, 6-Amino-4-(4-bromophenyl)-3-methyl-2,4-dihydropyrano[2,3-c]pyrazole-5-carbonitrile], the “Luciferase activity fold increase compared to basal conditions” value in assay [2] (GSK3β silenced (siGSK3β)) is on record as 2.8 fold; in assay [2] (cells previously treated with scramble control siRNA), 2.2 fold.
